The source of these data is PubChem BioAssay (NCI).

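1) Cells in 96-well plates. 2) Compound, 48 h, 5 concentrations. 3) Linear interpolation between surrounding doses. 4) Unreached endpoint = highest concentration. At the GI50, growth is halved. TGI: total growth inhibition.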

Test systems include HCT-116 colon; SK-MEL-5 melanoma; SK-MEL-28 melanoma; HOP-62 NSCLC; MOLT-4 leukemia; A549 NSCLC; NCI-H522 lung; UO-31 renal; ACHN renal; IGROV1 ovarian.
Assay in all cases: NCI tumour cell line growth inhibition, 48 h

As to `c1ccc2c(c1)[nH]c1c2nc2ncccn21`, the TGI with HCT-116 colon, in the assay on SK-MEL-5 melanoma, in the assay with SK-MEL-28 melanoma, in the assay on HOP-62 NSCLC, in the assay on MOLT-4 leukemia and in the assay with A549 NSCLC was greater than 100 µM each time. Moreover, the TGI with NCI-H522 lung, in the assay with UO-31 renal, in the assay on ACHN renal and with IGROV1 ovarian was greater than 100 µM each time.

`COc1ccc(-c2c(-c3cc(OC)c(OC)c(OC)c3)noc2N)cc1`: the GI50 is less than 0.01 µM in the assay on HCT-116 colon; less than 0.01 µM in the assay with SK-MEL-5 melanoma; 0.016 µM with SK-MEL-28 melanoma; 0.0239 µM in the assay on HOP-62 NSCLC; 0.0312 µM in the assay with MOLT-4 leukemia; less than 0.0124 µM with A549 NSCLC. The GI50 in the assay on NCI-H522 lung was less than 0.01 µM; in the assay with ACHN renal, less than 0.0141 µM; in the assay with IGROV1 ovarian, 0.0202 µM. Besides, the TGI with HCT-116 colon was greater than 32 µM; in the assay on SK-MEL-5 melanoma it was 0.257 µM; with SK-MEL-28 melanoma, greater than 100 µM; in the assay on HOP-62 NSCLC, 38.9 µM; in the assay with MOLT-4 leukemia, 10.4 µM; in the assay with A549 NSCLC it was greater than 100 µM. Besides, the TGI with UO-31 renal is greater than 100 µM; with ACHN renal it was 43.8 µM; in the assay on IGROV1 ovarian, 40.1 µM.

As to `COc1cnc2c(c1)C(=O)c1c-2n(CCCNC(C)C)c(=O)c2cc(F)ccc12`, the GI50 is 0.093 µM in the assay with HCT-116 colon; 0.156 µM in the assay on SK-MEL-5 melanoma; 0.94 µM in the assay with SK-MEL-28 melanoma; 0.107 µM with HOP-62 NSCLC; 0.0362 µM in the assay on MOLT-4 leukemia; 0.0718 µM in the assay with A549 NSCLC. The GI50 is 0.0385 µM in the assay with NCI-H522 lung, 0.0801 µM with UO-31 renal, 0.0565 µM with ACHN renal and 0.206 µM in the assay with IGROV1 ovarian. Also, the TGI is 0.328 µM in the assay on HCT-116 colon; 0.496 µM in the assay on SK-MEL-5 melanoma; 2.51 µM with SK-MEL-28 melanoma; 0.427 µM in the assay with HOP-62 NSCLC; 0.267 µM in the assay on MOLT-4 leukemia; 0.239 µM with A549 NSCLC. For the same compound, the TGI was determined as 0.376 µM with NCI-H522 lung, 0.34 µM in the assay on UO-31 renal, 0.229 µM in the assay on ACHN renal and 1.92 µM in the assay on IGROV1 ovarian.

For the compound `CCCCCCCCCCCCOC1C(C(CC(=O)N2CCN(c3cccc(C(F)(F)F)c3)CC2)NS(=O)(=O)c2cc(Cl)cc(Cl)c2)OC2OC(C)(C)OC21` (stereo not drawn), the GI50 in the assay on HCT-116 colon, in the assay on SK-MEL-5 melanoma, in the assay with SK-MEL-28 melanoma, with HOP-62 NSCLC, with MOLT-4 leukemia and with A549 NSCLC was greater than 100 µM throughout. For the same compound, the GI50 with NCI-H522 lung, with UO-31 renal, with ACHN renal and with IGROV1 ovarian was greater than 100 µM throughout. Moreover, the TGI in the assay on HCT-116 colon, in the assay on SK-MEL-5 melanoma, in the assay on SK-MEL-28 melanoma, in the assay with HOP-62 NSCLC, in the assay on MOLT-4 leukemia and with A549 NSCLC was greater than 100 µM each time. In addition, the TGI in the assay with NCI-H522 lung, in the assay on UO-31 renal, in the assay with ACHN renal and in the assay on IGROV1 ovarian was greater than 100 µM each time.

With `O=S(O)CCCSSc1ccccc1`, the TGI with HCT-116 colon is greater than 100 µM; in the assay with SK-MEL-5 melanoma, greater than 100 µM; in the assay with SK-MEL-28 melanoma, greater than 100 µM; in the assay with HOP-62 NSCLC it was greater than 100 µM; in the assay with MOLT-4 leukemia, 70.2 µM; in the assay on A549 NSCLC, greater than 100 µM. Also, the TGI was 42.4 µM in the assay on NCI-H522 lung, greater than 100 µM in the assay with UO-31 renal, greater than 100 µM with ACHN renal and 41.1 µM in the assay with IGROV1 ovarian.

Regarding `CCS(=O)(=O)Nc1cccc(Nc2c3cccc(C)c3nc3c(C)cccc23)c1OC`, the GI50 with HCT-116 colon is 0.793 µM; in the assay with SK-MEL-5 melanoma, 1.1 µM; in the assay on SK-MEL-28 melanoma, 4.29 µM; with HOP-62 NSCLC, 0.555 µM; in the assay on MOLT-4 leukemia it was 0.166 µM; with A549 NSCLC it was 0.202 µM. In addition, the GI50 was 2.58 µM with NCI-H522 lung, 0.393 µM in the assay with UO-31 renal, 0.326 µM in the assay with ACHN renal and 1.8 µM in the assay on IGROV1 ovarian. Also, the TGI in the assay on HCT-116 colon is greater than 51.9 µM; in the assay on SK-MEL-5 melanoma it was 8.21 µM; in the assay with SK-MEL-28 melanoma, greater than 100 µM; with HOP-62 NSCLC, greater than 29.3 µM; in the assay with MOLT-4 leukemia, 4.23 µM; in the assay on A549 NSCLC, 4.02 µM. Moreover, the TGI is 19.5 µM with NCI-H522 lung, 26 µM in the assay on UO-31 renal, 16.5 µM in the assay with ACHN renal and greater than 70.2 µM in the assay with IGROV1 ovarian.

As to `O=c1c2ccccc2c2ccccc2c(=O)n1Cc1ccc2c(c1)OCO2`, the TGI was greater than 100 µM in the assay on HCT-116 colon; greater than 100 µM with SK-MEL-5 melanoma; greater than 100 µM in the assay on SK-MEL-28 melanoma; greater than 100 µM in the assay on HOP-62 NSCLC; greater than 50.6 µM in the assay on MOLT-4 leukemia; greater than 100 µM in the assay on A549 NSCLC. Further, the TGI in the assay with NCI-H522 lung, in the assay with UO-31 renal, in the assay on ACHN renal and in the assay on IGROV1 ovarian was greater than 100 µM each time.

In the case of `O=C(CCC(C(=O)c1ccccc1)c1ccccc1)c1ccccc1` (stereo not drawn), the GI50 in the assay with HCT-116 colon was 6.45 µM; in the assay on SK-MEL-5 melanoma it was 9.29 µM; in the assay with SK-MEL-28 melanoma, 55.7 µM; in the assay with HOP-62 NSCLC, 25.5 µM; in the assay on MOLT-4 leukemia it was 5.75 µM; in the assay with A549 NSCLC, 7.29 µM. Further, the GI50 with NCI-H522 lung is 2.64 µM; in the assay with UO-31 renal, 7.28 µM; in the assay on ACHN renal, 31.3 µM; with IGROV1 ovarian, 32 µM. Further, the TGI in the assay on HCT-116 colon is greater than 100 µM; in the assay on SK-MEL-5 melanoma, 34.3 µM; in the assay on SK-MEL-28 melanoma, greater than 100 µM; with HOP-62 NSCLC, greater than 100 µM; in the assay with MOLT-4 leukemia, greater than 100 µM; in the assay on A549 NSCLC, greater than 100 µM. Also, the TGI is 8.98 µM with NCI-H522 lung, greater than 100 µM with UO-31 renal, greater than 100 µM in the assay with ACHN renal and greater than 100 µM with IGROV1 ovarian.
